Experimental data: PubChem BioAssay AID1963867 (Molecular Pharmacology Branch, DTP, NCI, 2024)

Test system: KRAS-mutant PDC tumor spheroid with HUVEC/MSC, viability
Experiment: Anticancer human tumor 327498-153-R-J2-PDC patient-derived uterine carcinosarcoma cell line growth inhibition [KRAS2]
Settings: for IC50: curve of first compound; for viability, T/C: stronger effect = lower value
Procedure, shortened: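 Combination screen of spheroid viability in tumor-cell co-cultures with endothelial (HUVEC) and mesenchymal stem cell stroma. Each agent was tested in half-log dilutions, topping at clinical Cmax or at 10 microM without a known Cmax.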

[1] = second compound 0.1 µM, first compound 0.0316 µM
[2] = second compound 0.1 µM, first compound 0.1 µM
[3] = second compound 0.1 µM, first compound 0.316 µM
[4] = second compound 0.1 µM, first compound 1 µM
[5] = second compound 0.1 µM, first compound 3.16 µM
[6] = second compound 0.1 µM, first compound 10 µM
[7] = second compound 0.316 µM, first compound 0.0316 µM
[8] = second compound 0.316 µM, first compound 0.1 µM
[9] = second compound 0.316 µM, first compound 0.316 µM
[10] = second compound 0.316 µM, first compound 1 µM
[11] = second compound 0.316 µM, first compound 3.16 µM
[12] = second compound 0.316 µM, first compound 10 µM
[13] = second compound 1 µM, first compound 0.0316 µM
[14] = second compound 1 µM, first compound 0.1 µM
[15] = second compound 1 µM, first compound 0.316 µM
[16] = second compound 1 µM, first compound 1 µM
[17] = second compound 1 µM, first compound 3.16 µM
[18] = second compound 1 µM, first compound 10 µM
[19] = second compound 3.16 µM, first compound 0.0316 µM
[20] = second compound 3.16 µM, first compound 0.1 µM
[21] = second compound 3.16 µM, first compound 0.316 µM
[22] = second compound 3.16 µM, first compound 1 µM
[23] = second compound 3.16 µM, first compound 3.16 µM
[24] = second compound 3.16 µM, first compound 10 µM
[25] = second compound 10 µM, first compound 0.0316 µM
[26] = second compound 10 µM, first compound 0.1 µM
[27] = second compound 10 µM, first compound 0.316 µM
[28] = second compound 10 µM, first compound 1 µM
[29] = second compound 10 µM, first compound 3.16 µM
[30] = second compound 10 µM, first compound 10 µM
[31] = second compound 0.0316 µM, first compound 0.000316 µM
[32] = second compound 0.0316 µM, first compound 0.001 µM
[33] = second compound 0.0316 µM, first compound 0.00316 µM
[34] = second compound 0.0316 µM, first compound 0.01 µM
[35] = second compound 0.0316 µM, first compound 0.0316 µM
[36] = second compound 0.1 µM, first compound 0.000316 µM
[37] = second compound 0.1 µM, first compound 0.001 µM
[38] = second compound 0.1 µM, first compound 0.00316 µM
[39] = second compound 0.1 µM, first compound 0.01 µM
[40] = second compound 0.316 µM, first compound 0.000316 µM
[41] = second compound 0.316 µM, first compound 0.001 µM
[42] = second compound 0.316 µM, first compound 0.00316 µM
[43] = second compound 0.316 µM, first compound 0.01 µM
[44] = second compound 1 µM, first compound 0.000316 µM
[45] = second compound 1 µM, first compound 0.001 µM
[46] = second compound 1 µM, first compound 0.00316 µM
[47] = second compound 1 µM, first compound 0.01 µM
[48] = second compound 3.16 µM, first compound 0.000316 µM
[49] = second compound 3.16 µM, first compound 0.001 µM
[50] = second compound 3.16 µM, first compound 0.00316 µM
[51] = second compound 3.16 µM, first compound 0.01 µM
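Also: spheroids exposed to agents for seven days before reading.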
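For viability, T/C in this document: 100% = DMSO vehicle wells so lower means fewer viable cells.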

O=C(c1cc(Cc2n[nH]c(=O)c3ccccc23)ccc1F)N1CCN(C(=O)C2CC2)CC1 + CC1OCC2(CCN(c3cnc(Sc4ccnc(N)c4Cl)c(N)n3)CC2)C1N
IC50 (second compound 0.1 µM): 1660 nM
IC50 (second compound 0.316 µM): 1080 nM
IC50 (second compound 1 µM): 242 nM
IC50 (second compound 3.16 µM): < 31.6 nM
IC50 (second compound 10 µM): < 31.6 nM
viability, T/C [1]: 81.3%
viability, T/C [2]: 83.8%
viability, T/C [3]: 75%
viability, T/C [4]: 62.6%
viability, T/C [5]: 34.8%
viability, T/C [6]: 19.4%
viability, T/C [7]: 70.4%
viability, T/C [8]: 68.6%
viability, T/C [9]: 62.6%
viability, T/C [10]: 52.2%
viability, T/C [11]: 31.7%
viability, T/C [12]: 17.5%
viability, T/C [13]: 104%
viability, T/C [14]: 60.7%
viability, T/C [15]: 44.2%
viability, T/C [16]: 40.9%
viability, T/C [17]: 21.9%
viability, T/C [18]: 14.2%
viability, T/C [19]: 40.5%
viability, T/C [20]: 37.6%
viability, T/C [21]: 38.1%
viability, T/C [22]: 28.7%
viability, T/C [23]: 17.9%
viability, T/C [24]: 13.8%
viability, T/C [25]: 36.7%
viability, T/C [26]: 31.8%
viability, T/C [27]: 27.1%
viability, T/C [28]: 25.3%
viability, T/C [29]: 15.9%
viability, T/C [30]: 11.4%

CCNC(=O)CC1N=C(c2ccc(Cl)cc2)c2cc(OC)ccc2-n2c(C)nnc21 (stereo not drawn) + CC1OCC2(CCN(c3cnc(Sc4ccnc(N)c4Cl)c(N)n3)CC2)C1N
IC50 (second compound 0.1 µM): 346 nM
IC50 (second compound 0.316 µM): 102 nM
IC50 (second compound 1 µM): < 31.6 nM
IC50 (second compound 3.16 µM): < 31.6 nM
IC50 (second compound 10 µM): < 31.6 nM
viability, T/C [1]: 64.3%
viability, T/C [2]: 68%
viability, T/C [3]: 49.8%
viability, T/C [4]: 37.8%
viability, T/C [5]: 38.8%
viability, T/C [6]: 27.5%
viability, T/C [7]: 51.8%
viability, T/C [8]: 51.5%
viability, T/C [9]: 37.9%
viability, T/C [10]: 27.9%
viability, T/C [11]: 26.2%
viability, T/C [12]: 22.4%
viability, T/C [13]: 42%
viability, T/C [14]: 35.4%
viability, T/C [15]: 31.7%
viability, T/C [16]: 18.3%
viability, T/C [17]: 17.8%
viability, T/C [18]: 16.8%
viability, T/C [19]: 31.3%
viability, T/C [20]: 26.1%
viability, T/C [21]: 20.4%
viability, T/C [22]: 16.9%
viability, T/C [23]: 13.6%
viability, T/C [24]: 11.8%
viability, T/C [25]: 20.1%
viability, T/C [26]: 20.7%
viability, T/C [27]: 18.2%
viability, T/C [28]: 13.9%
viability, T/C [29]: 12%
viability, T/C [30]: 10.9%

Cn1ncnc1[C@H]1c2n[nH]c(=O)c3cc(F)cc(c23)N[C@@H]1c1ccc(F)cc1 + C=CC(=O)N1CCN(c2nc(OCC3CCCN3C)nc3c2CCN(c2cccc4cccc(C)c24)C3)CC1CC#N
IC50 (second compound 0.0316 µM): 7.27 nM
IC50 (second compound 0.1 µM): 3.84 nM
IC50 (second compound 0.316 µM): 1.97 nM
IC50 (second compound 1 µM): < 0.316 nM
IC50 (second compound 3.16 µM): < 0.316 nM
viability, T/C [31]: 77.5%
viability, T/C [32]: 69.2%
viability, T/C [33]: 63.3%
viability, T/C [34]: 45.2%
viability, T/C [35]: 28.2%
viability, T/C (second compound 0.0316 µM, first compound 0.1 µM): 16.9%
viability, T/C [36]: 54.5%
viability, T/C [37]: 57.5%
viability, T/C [38]: 54.3%
viability, T/C [39]: 35.2%
viability, T/C [1]: 21.9%
viability, T/C [2]: 14.6%
viability, T/C [40]: 56.1%
viability, T/C [41]: 48.5%
viability, T/C [42]: 49.8%
viability, T/C [43]: 32.8%
viability, T/C [7]: 18.7%
viability, T/C [8]: 13.7%
viability, T/C [44]: 44%
viability, T/C [45]: 53.7%
viability, T/C [46]: 37.1%
viability, T/C [47]: 25.4%
viability, T/C [13]: 17.1%
viability, T/C [14]: 12.3%
viability, T/C [48]: 0.23%
viability, T/C [49]: 0.18%
viability, T/C [50]: 0.94%
viability, T/C [51]: 0.16%
viability, T/C [19]: 0.18%
viability, T/C [20]: 0.22%

COc1cc(OC)cc(N(CCNC(C)C)c2ccc3ncc(-c4cnn(C)c4)nc3c2)c1
viability, T/C (compound 0.0316 µM): 73.7% [middle of 5 runs]
viability, T/C (compound 0.1 µM): 71.3% [middle of 5 runs]
viability, T/C (compound 10 µM): 0.42% [middle of 5 runs]

CC(=O)Nc1cccc(-n2c(=O)n(C3CC3)c(=O)c3c(Nc4ccc(I)cc4F)n(C)c(=O)c(C)c32)c1 + C=CC(=O)N1CCN(c2nc(OCC3CCCN3C)nc3c2CCN(c2cccc4cccc(C)c24)C3)CC1CC#N
IC50 (second compound 0.0316 µM): 6.53 nM
IC50 (second compound 0.1 µM): 5.43 nM
IC50 (second compound 0.316 µM): 3.49 nM
IC50 (second compound 1 µM): 0.128 nM
IC50 (second compound 3.16 µM): < 0.1 nM
viability, T/C (second compound 0.0316 µM, first compound 0.0001 µM): 72.7%
viability, T/C [31]: 64.8%
viability, T/C [32]: 57.4%
viability, T/C [33]: 58%
viability, T/C [34]: 49.1%
viability, T/C [35]: 31.4%
viability, T/C (second compound 0.1 µM, first compound 0.0001 µM): 67.1%
viability, T/C [36]: 68.3%
viability, T/C [37]: 58.4%
viability, T/C [38]: 53%
viability, T/C [39]: 47.8%
viability, T/C [1]: 25.4%
viability, T/C (second compound 0.316 µM, first compound 0.0001 µM): 58.5%
viability, T/C [40]: 54.6%
viability, T/C [41]: 55.7%
viability, T/C [42]: 48%
viability, T/C [43]: 44.7%
viability, T/C [7]: 25.5%
viability, T/C (second compound 1 µM, first compound 0.0001 µM): 48.5%
viability, T/C [44]: 52.4%
viability, T/C [45]: 45.7%
viability, T/C [46]: 41.9%
viability, T/C [47]: 35.8%
viability, T/C [13]: 22.1%
viability, T/C (second compound 3.16 µM, first compound 0.0001 µM): 0.75%
viability, T/C [48]: 0.19%
viability, T/C [49]: 0.19%
viability, T/C [50]: 0.22%
viability, T/C [51]: 0.18%
viability, T/C [19]: 0.31%
